# Experimental data from patent publication US12595269B2, “Morpholine-like monoamine releasers” (Solvonis Therapeutics Ireland Holdings Limited, priority 2022, dated 2026).
# Read-outs that look alike come from different tables or passages of the source.
# Assay: Pharmacokinetic and brain penetration study, intravenous and oral administration in rats
# Format: in vivo
# Settings: rat; for concentration at 8 h: read-out: Clast; for Vd: read-out: Vss
# Experimental: Methods and Procedure: The study was conducted in agreement with procedures to assure data integrity and GLP principles. Three experimental groups, as outlined below, were included in the study:
# Group 1: Exemplary compound 522A was administered via the IV route to three rats at a target dose level of 0.5 mg/kg. Blood and brain samples were collected at 2h after IV administration.
# Group 2: Exemplary compound 522A was administered via the IV route to three rats (brain penetration group) at a target dose level of 0.5 mg/kg. Blood and brain samples were collected at 2h after IV administration.
# Group 3: Exemplary compound 522A was orally administered to three rats at a target dose level of 1 mg/kg. Blood samples were collected up to 24h after oral administration.
# All test formulations were prepared on the day of administration prior to dosing, stored at room temperature, and used as soon as possible. Formulations were prepared and administered by volume for both IV and oral dosing. Actual body weights were determined on the day of dose administration, and the dose volumes were adjusted to the weight of the animal at the time of dose administration.
# Blood was collected into K3 EDTA tubes at each of the following time points post-administration: • Group 1 (ITS): 0.083, 0.33, 1, 2, 4, 6, 8, and 24 hours after dosing • Group 2 (ITS): 2 hours after dosing for terminal brain analysis • Group 3 (Oral): 0.250, 0.5, 1, 2, 4, 6, 8, and 24 hours after dosing
# All blood samples were thoroughly but gently mixed following collection and then placed on wet ice. Within 0.5 h of collection, blood was centrifuged (3000 g for 10 minutes at approximately 4° C.). Within 0.5 hours, 20 μL of each plasma sample was transferred into micronic tubes containing 80 μL of 0.1N Hepes buffer (pH 7.0-7.5). Residual plasma was transferred in micronic tubes as a second aliquot.
# Brain specimens were diluted with 4 volumes of 0. IN Hepes buffer and homogenized using the Precellys system. Blood and brain samples were assayed using an optimized method based on protein precipitation with acetonitrile followed by HPLC/MS-MS analysis. Given the unknown stability of analytes in blood and brain, Calibration standards (CS) and Quality control samples (QC) were prepared in blood and brain samples on the day of dosing and stored together with study samples. It is assumed this procedure accounted for any possible analyte degradation.
# Study samples, CS, QC, and blanks were spiked with an internal standard (IS), to improve the precision of the assay. Study samples were analyzed together with CS, QC and blank samples (including double blanks). From the calibration curve, the linear range of the analytical method was determined and the lower/upper limits of quantitation were specified.
# The results of blood and brain specimens were subjected to non-compartmental pharmacokinetic analysis using Phoenix WinNonlin 6.3, with the following parameters reported: Calculated concentration of test items in the corresponding formulation (expressed as mg/mL), dose levels (expressed as mg/kg) for each compound, actual collection times (expressed as hh: mM), blood concentrations (expressed as ng/ml) for each compound, brain concentrations (expressed as ng/g) for each compound, PK parameters (iv: Cmax, AUC, CLp, Vss, t1/2, if applicable; oral (po): Cmax, tmax, AUC, F %, Fa %, Eh, AUC BB ratio, if applicable) for each compound, and abnormal clinical signs and relevant findings, if any.
# [1] = plasma, iv, 0.5 mg/kg, 0.5 mg/kg (Table 8)
# [2] = plasma, iv, 0.5 mg/kg, 0.5 mg/kg (Table 9)
# [3] = plasma, iv, 0.5 mg/kg, IV, 0.5 mg/kg (Table 8)
# [4] = plasma, iv, 0.5 mg/kg, IV, 0.5 mg/kg (Table 9)
smiles,measurement,setting,value
"Clc1ccc(C23CNC(CO2)C3)cc1Cl (stereo not shown) [522A, 1-(3,4-dichlorophenyl)-2-oxa-5-azabicyclo[2.2.1]heptane]",Kp uu at 2 h,"brain and blood, 0.5 mg/kg, two hours after IV administration, read-out: concentration ratio of unbound drug in brain to blood (kp, uu)",0.77
same,Kp at 2 h,"brain and plasma, 0.5 mg/kg, two hours after IV administration, read-out: mean brain-to-plasma ratio",4.96
same,Tmax,"plasma, IV, 0.5 mg/kg (Table 8)",0.08 h
same,Tmax,"plasma, oral (PO), 1 mg/kg",2 h
same,bioavailability,"plasma, oral (PO), 1 mg/kg versus IV",30.8%
same,Tlast,"IV, 0.5 mg/kg (Table 8)",8 h
same,Tlast,"IV, 0.5 mg/kg (Table 9)",8 h
same,concentration at 2 h,"brain, iv, 0.5 mg/kg, two hours after IV administration, 0.5 mg/kg, read-out: free concentration in the brain",42.8 nM
same,concentration at 2 h,"brain, iv, 0.5 mg/kg, two hours after IV administration, 0.5 mg/kg, read-out: total concentration in the brain",1930 nM
same,Tlast,"oral (PO), 1 mg/kg",8 h
same,AUC(0-inf),[1],1480 ng·h/mL
same,AUC(0-t),[1],1460 ng·h/mL
same,Cmax,[1],1890 ng/mL
same,clearance,[1],5.71 mL/min/kg
same,half-life,[1],1.36 h
same,AUC(0-inf),[2],799 ng·h/mL
same,AUC(0-t),[2],772 ng·h/mL
same,Cmax,[2],878 ng/mL
same,clearance,[2],11.6 mL/min/kg
same,half-life,[2],1.65 h
same,concentration at 8 h,[3],9.32 ng/mL
same,Vd,[3],0.411 L/kg
same,concentration at 8 h,[4],10.6 ng/mL
same,Vd,[4],1.48 L/kg
same,concentration at 2 h,"plasma, iv, 0.5 mg/kg, two hours after IV administration, 0.5 mg/kg, read-out: free concentration in plasma",71.3 nM
same,concentration at 2 h,"plasma, iv, 0.5 mg/kg, two hours after IV administration, 0.5 mg/kg, read-out: total plasma concentration",594 nM
same,AUC(0-inf),"plasma, po, 1 mg/kg, oral (PO)",509 ng·h/mL
same,AUC(0-t),"plasma, po, 1 mg/kg, oral (PO)",442 ng·h/mL
same,Cmax,"plasma, po, 1 mg/kg, oral (PO)",102 ng/mL
same,half-life,"plasma, po, 1 mg/kg, oral (PO)",2.42 h
same,concentration at 8 h,"plasma, po, 1 mg/kg, oral (PO), 1 mg/kg",19.3 ng/mL
